Assay results: PubChem BioAssay (NCI)
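Tested at 5 concentrations; 48 h exposure; 96-well plates; endpoints linearly interpolated, else capped at highest concentration. TGI denotes the concentration required for complete inhibition of growth.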

Columns and labels:
Experiment in all cases: growth of human tumour cells (NCI), 48 h
SK-MEL-28 melanoma = system: SK-MEL-28 melanoma
RXF 393 renal = system: RXF 393 renal
OVCAR-3 ovarian = system: OVCAR-3 ovarian
HCT-116 colon = system: HCT-116 colon
HCC-2998 colon = system: HCC-2998 colon
OVCAR-5 ovarian = system: OVCAR-5 ovarian
UACC-62 melanoma = system: UACC-62 melanoma
OVCAR-4 ovarian = system: OVCAR-4 ovarian
MOLT-4 leukemia = system: MOLT-4 leukemia
RPMI-8226 leukemia = system: RPMI-8226 leukemia
SNB-19 CNS = system: SNB-19 CNS
CCRF-CEM leukemia = system: CCRF-CEM leukemia
MALME-3M melanoma = system: MALME-3M melanoma
ACHN renal = system: ACHN renal
HT29 colon = system: HT29 colon
UACC-257 melanoma = system: UACC-257 melanoma
SN12C renal = system: SN12C renal
HCT-15 colon = system: HCT-15 colon
UO-31 renal = system: UO-31 renal
TK-10 renal = system: TK-10 renal

| SMILES | TGI (SK-MEL-28 melanoma) [µM] | TGI (RXF 393 renal) [µM] | TGI (OVCAR-3 ovarian) [µM] | TGI (HCT-116 colon) [µM] | TGI (HCC-2998 colon) [µM] | TGI (OVCAR-5 ovarian) [µM] | TGI (UACC-62 melanoma) [µM] | TGI (OVCAR-4 ovarian) [µM] | TGI (MOLT-4 leukemia) [µM] | TGI (RPMI-8226 leukemia) [µM] | TGI (SNB-19 CNS) [µM] | TGI (CCRF-CEM leukemia) [µM] | TGI (MALME-3M melanoma) [µM] | TGI (ACHN renal) [µM] | TGI (HT29 colon) [µM] | TGI (UACC-257 melanoma) [µM] | TGI (SN12C renal) [µM] | TGI (HCT-15 colon) [µM] | TGI (UO-31 renal) [µM] | TGI (TK-10 renal) [µM] |
| --- | --- | --- | --- | --- | --- | --- | --- | --- | --- | --- | --- | --- | --- | --- | --- | --- | --- | --- | --- | --- |
| CCOC(=O)/C(C1=N[C@H](C(=O)OCC)CS1)=C(\O)c1ccccc1 | > 100 | > 100 | > 100 | > 100 | > 100 | > 100 | > 100 | > 100 | > 100 | > 100 | > 100 | > 100 | > 100 | > 100 | > 100 | > 100 | > 100 | > 100 | > 100 |  |
| NNc1nnc(-c2ccccc2)nc1Cc1ccccc1 | > 100 | > 100 | > 100 | > 100 | > 100 | > 100 | 16.1 | > 100 | > 100 |  | > 100 | > 100 | 26.3 | > 100 | > 100 |  | 51.6 | > 100 | 31.6 | > 100 |
| Cc1cc(=O)[nH]c(NN2C(Cl)C(=O)C2c2ccco2)n1 (centres undefined) |  | > 100 | 79.4 | > 100 | > 100 | > 100 | 63.6 | > 100 | > 100 | 38.3 | > 100 | 45.6 |  | > 100 | > 100 | > 100 | 77 | > 100 | > 100 | > 100 |
| C/C(=N\NC(=O)c1ccncc1)c1cccc(C(F)(F)F)c1 | > 10 |  |  |  | > 10 |  | > 10 | > 10 | > 10 | > 10 |  | > 10 | > 10 |  | > 10 | > 10 | > 10 | > 10 | > 10 | > 10 |
